We go through seven compounds from US12384801B2, “Benzothiophene, thienopyridine and thienopyrimidine derivatives for the modulation of sting” (CTXT PTY LTD, priority 2019, dated 2025).

Structures are written as SMILES. pEC50, pKd: −log10 of the molar value.

The target of test [1] is T1, human STING (WT) (Homo sapiens (Human), UniProt Q86WV6, H232R). The test is described as follows: Differential scanning fluorimetry (DSF), huSTING (WT). It is filed as binding. To be noted: compound 100 μM, 2 μM protein, Tm with ligand minus Tm of protein alone (1% DMSO). The protocol: (§1) Data were analyzed using “Meltdown analysis” protocol described by Rosa (2015).

The target of test [2] is human HAQ isoform of STING (Homo sapiens (Human), UniProt Q86WV6, G230A/H232R/R293Q/R71H). The test is described as follows: THP-1 STING Lucia ISG reporter cell line assay. It is filed as cell-based. As to conditions: 24 h incubation, luminescence, normalized to ML RR-S2 CDA 40 μM; read-out: EC50 THP-I STING Lucia ISG cells. The method, then:
(§2) THP-1 STING Lucia ISG cells (InvivoGen #thpl-isg) were cultured in RPMI-1640 containing 2 mM L-glutamine, 25 mM HEPES, 100 μg/mL Normocin (InvivoGen) and 10% heat-inactivated FBS. Cells were seeded at a density of 7×10^5 cells/mL, maintained at 37° C./5% CO2, and passaged every 3-4 days. Selection pressure was maintained by the addition of 100 μg/mL Zeocin every second passage.
(§3) Assay conditions: cells were harvested and resuspended at a concentration of 5×10^5 cells/mL in fresh growth media. Of this cell preparation 20 μL per well was dispensed into 384 well cell culture plates (Greiner, #781098X) and incubated at 37° C./5% CO2 for 2 hours.
(§4) Concentration Response Curves (commonly 11 doses) were prepared by 2.5 fold serial dilution starting from 10 mM compound stock solution in DMSO. Compound dilutions were transferred into the cell culture plates using a pintool (0.1 μL transfer), control wells were matched for DMSO. Positive control wells received ML RR-S2 CDA (Med Chem Express HY12885B) in 5 μL of media to a final concentration of 40 μM. All other wells received additional 5 μL of media only to equalize volume. The plates were incubated for 24 h at 37° C./5% CO2.
(§5) For the detection step, QUANTI-Luc (InvivoGen #rep-qlc1) was prepared according to manufacturer's instruction and 10 μL were added per well to the culture plates. Plates were shaken for ten seconds on an orbital shaker and left in the dark at room temperature for two minutes, before luminescence was read on a Perkin Elmer Envision plate reader.
(§6) Data analysis: Luminescence raw data was normalized % activity relative to the signal of the positive control wells and negative control wells which were not treated with compound. The following formula was used to calculate normalized % activity from raw signals: % activity=(sample−negative)/(positive−negative)
(§7) The THP-1 STING Lucia ISG cell EC50 provides an assessment of activity at the human HAQ isoform of STING. For assessing compound activity against the WT human STING isoform, an equivalent method was conducted where the cells used were THP-1-Dual KI-hSTING-R232 (InvivoGen #thpd-r232).

The target of test [3] is T2, human STING (HAQ) (Homo sapiens (Human), UniProt Q86WV6, G230A/H232R/R293Q). Briefly: Surface Plasmon Resonance (SPR), STING (HAQ). As to conditions: read-out: SPR (HAQ) KD; biotinylated STING on streptavidin chip, 8° C.
For test [4], the target named is T2, human STING (HAQ). Briefly: Differential scanning fluorimetry (DSF), huSTING (HAQ). Format: binding. To be noted: compound 100 μM, 2 μM protein, Tm with ligand minus Tm of protein alone (1% DMSO). The protocol:
as §1

In test [5] the target is WT human STING isoform (Homo sapiens (Human), UniProt Q86WV6, H232R). Briefly: THP-1-Dual KI-hSTING-R232 reporter cell line assay. It is filed as cell-based. As to conditions: 24 h incubation, luminescence, normalized to ML RR-S2 CDA 40 μM; read-out: EC50 THP-1 Dual KI-hSTING-R232 cells. The method, then: as §2, §3, §4, §5, §6, §7
Test [6] has as its target T1, human STING (WT). Briefly: Surface Plasmon Resonance (SPR), STING (WT). To be noted: read-out: SPR (WT) KD; biotinylated STING on streptavidin chip, 8° C.

Sequence of human HAQ isoform of STING (Q86WV6 whole entry R71H/G230A/H232R/R293Q, canonical isoform): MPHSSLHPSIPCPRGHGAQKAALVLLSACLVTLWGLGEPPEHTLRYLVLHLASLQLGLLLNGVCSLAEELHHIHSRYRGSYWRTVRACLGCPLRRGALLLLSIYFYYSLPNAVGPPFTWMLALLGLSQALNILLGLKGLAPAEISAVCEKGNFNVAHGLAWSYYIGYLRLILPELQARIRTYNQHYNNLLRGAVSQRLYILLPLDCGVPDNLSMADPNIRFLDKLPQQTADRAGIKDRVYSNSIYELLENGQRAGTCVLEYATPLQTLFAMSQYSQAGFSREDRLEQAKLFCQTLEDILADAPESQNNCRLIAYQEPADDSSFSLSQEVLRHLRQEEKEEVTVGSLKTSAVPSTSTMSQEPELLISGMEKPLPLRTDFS
Sequence of WT human STING isoform (Q86WV6 whole entry H232R, canonical isoform): as the sequence (Q86WV6 whole entry R71H/G230A/H232R/R293Q, canonical isoform) above, with H71R, A230G, Q293R counted along it
T1 sequence (Q86WV6 149-345 H232R): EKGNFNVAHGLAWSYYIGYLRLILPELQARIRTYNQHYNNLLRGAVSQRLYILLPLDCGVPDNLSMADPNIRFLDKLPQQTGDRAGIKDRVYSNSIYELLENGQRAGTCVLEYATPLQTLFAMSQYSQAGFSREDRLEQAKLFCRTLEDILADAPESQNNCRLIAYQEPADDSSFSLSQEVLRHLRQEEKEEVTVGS
T2 sequence (Q86WV6 149-345 G230A/H232R/R293Q): as the sequence (Q86WV6 149-345 H232R) above, with G82A, R145Q counted along it

As usually defined, the ΔTm is the change in melting temperature against a reference sample. Usually pEC50 stands for the EC50 on a negative log10 scale, so that one unit is a factor of ten. As usually defined, the pKd is the Kd on a negative log10 scale, so that one unit is a factor of ten. `CCOc1cccc2sc(C(=O)O)c(-c3nc4cc(C(N)=O)ccc4n3CCn3c(-c4c(C(=O)O)sc5cccc(OCC)c45)nc4cc(C(N)=O)ccc43)c12` [Example 24, 3,3′-(Ethane-1,2-diylbis(5-carbamoyl-1H-benzo[d]imidazole-1,2-diyl))bis(4-ethoxybenzo[b]thiophene-2-carboxylic acid)]: the ΔTm at 100 µM in test [1] is -0.39 °C; in test [4], 3.15 °C. The pEC50 in test [2] and in test [5] was < 4.40 throughout. Besides, the pKd in test [3] is 4.43.

As for `Cc1cccc2sc(C(=O)O)c(-c3nc4cc(C(N)=O)ccc4n3CCn3c(-c4c(C(=O)O)sc5cccc(C)c45)nc4cc(C(N)=O)ccc43)c12` (single isomer, unassigned) [Example 15.1, 3,3′-(Ethane-1,2-diylbis(5-carbamoyl-1H-benzo[d]imidazole-1,2-diyl))bis(4-methylbenzo[b]thiophene-2-carboxylic acid)], the figures for the ΔTm at 100 µM in test [1] and in test [4] were 10.5 °C and 24.6 °C, respectively. The pEC50 in test [2] was 5.81; in test [5], 5.99. Also, the pKd in test [6] was 6.37.

Take `NC(=O)c1ccc2c(c1)nc(-c1c(C(=O)O)sc3ccccc13)n2CCn1c(-c2c(C(=O)O)sc3ccccc23)nc2cc(C(N)=O)ccc21` [Example 9, 3,3′-(Ethane-1,2-diylbis(5-carbamoyl-1H-benzo[d]imidazole-1,2-diyl))bis(benzo[b]thiophene-2-carboxylic acid)]: the ΔTm at 100 µM in test [1] is 2.36 °C; in test [4], 6.7 °C. The pEC50 was < 4.40 in test [2] and 5.44 in test [5]. The pKd in test [3] is 5.00.

For `COc1ccc(F)c2sc(C(=O)O)c(-c3nc4cc(C(N)=O)ccc4n3CCn3c(-c4c(C(=O)O)sc5c(F)ccc(OC)c45)nc4cc(C(N)=O)ccc43)c12` (single isomer, unassigned) [Example 13.2, 3,3′-(Ethane-1,2-diylbis(5-carbamoyl-1H-benzo[d]imidazole-1,2-diyl))bis(7-fluoro-4-methoxybenzo[b]thiophene-2-carboxylic acid)], in test [1], the “DSF huSTING (WT) ΔTm” value is −1.43 °C. In addition, the pEC50 in test [2] and in test [5] was < 4.40 in each case. The “DSF huSTING (HAQ) ΔTm” value in test [4] amounted to 0.89 °C. The pKd in test [6] was 5.63.

For the compound `N#Cc1cccc2sc(C(=O)O)c(-c3nc4cc(C(N)=O)ccc4n3CCn3c(-c4c(C(=O)O)sc5cccc(C#N)c45)nc4cc(C(N)=O)ccc43)c12` [Example 17, 3,3′-(Ethane-1,2-diylbis(5-carbamoyl-1H-benzo[d]imidazole-1,2-diyl))bis(4-cyanobenzo[b]thiophene-2-carboxylic acid)], the figures for the ΔTm at 100 µM in test [1] and in test [4] were -2.58 °C and 3.27 °C, respectively. Besides, the values for the pEC50 in test [2] and in test [5] were 4.83 and 5.03, respectively. Also, the pKd in test [3] was 4.42.

With `NC(=O)c1ccc2c(c1)nc(-c1c(C(=O)O)sc3c(F)ccc(Cl)c13)n2CCn1c(-c2c(C(=O)O)sc3c(F)ccc(Cl)c23)nc2cc(C(N)=O)ccc21` (single isomer, unassigned) [Example 2.2, 3,3′-(Ethane-1,2-diylbis(5-carbamoyl-1H-benzo[d]imidazole-1,2-diyl))bis(4-chloro-7-fluorobenzo[b]thiophene-2-carboxylic acid)], the “DSF huSTING (WT) ΔTm” value in test [1] worked out at 8.85 °C. The figures for the pEC50 in test [2] and in test [5] were 5.08 and 5.37, respectively. In addition, the pKd in test [3] was 6.91. In test [4], the “DSF huSTING (HAQ) ΔTm” value stood at 22.2 °C.

For the compound `NC(=O)c1ccc2c(c1)nc(-c1c(C(=O)O)sc3cccc(Br)c13)n2CCn1c(-c2c(C(=O)O)sc3cccc(Br)c23)nc2cc(C(N)=O)ccc21` (single isomer, unassigned) [Example 11.2, 3,3′-(Ethane-1,2-diylbis(5-carbamoyl-1H-benzo[d]imidazole-1,2-diyl))bis(4-bromobenzo[b]thiophene-2-carboxylic acid)], in test [1], the “DSF huSTING (WT) ΔTm” value was −5.12 °C. In addition, the pEC50 in test [2] is 5.26; in test [5] it was 5.55. Besides, the “DSF huSTING (HAQ) ΔTm” value in test [4] was −1.75 °C. For the same compound, in test [6], the pKd is 5.84.
